Earlier results, collected in patent US10501455B2, “Inhibitors of leukotriene A4 hydrolase” (Celtaxsys, Inc., priority 2013, dated 2019).

Legend:
[1] = target: T1, LTA4-h (Mus musculus, UniProt P24527); details: oral administration, mouse blood ex vivo; cited from earlier work
T1 construct: host or cells: mouse blood ex vivo
T1 sequence (P24527 1-611): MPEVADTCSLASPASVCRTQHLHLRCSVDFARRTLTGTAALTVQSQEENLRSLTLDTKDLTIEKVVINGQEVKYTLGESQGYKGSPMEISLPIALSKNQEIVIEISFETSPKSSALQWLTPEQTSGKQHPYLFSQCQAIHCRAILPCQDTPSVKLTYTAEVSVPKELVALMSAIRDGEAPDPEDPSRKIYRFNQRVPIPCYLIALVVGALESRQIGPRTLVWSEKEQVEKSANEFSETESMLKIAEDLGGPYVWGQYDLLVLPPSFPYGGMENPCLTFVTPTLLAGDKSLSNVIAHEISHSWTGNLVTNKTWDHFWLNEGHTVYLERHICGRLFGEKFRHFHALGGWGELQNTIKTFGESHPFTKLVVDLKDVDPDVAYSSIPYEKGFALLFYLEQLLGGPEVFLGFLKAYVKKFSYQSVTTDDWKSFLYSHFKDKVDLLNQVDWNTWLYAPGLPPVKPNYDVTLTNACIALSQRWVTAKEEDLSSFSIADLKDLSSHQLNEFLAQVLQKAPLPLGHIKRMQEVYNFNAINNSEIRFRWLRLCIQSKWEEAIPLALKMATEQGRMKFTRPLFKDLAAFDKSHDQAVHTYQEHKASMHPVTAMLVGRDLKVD

[2] = target: T2, LTA4-h (Rattus norvegicus, UniProt P30349); details: oral administration, rat peritoneum in vivo; cited from earlier work
T2 construct: host or cells: rat peritoneum in vivo
T2 sequence (P30349 1-611): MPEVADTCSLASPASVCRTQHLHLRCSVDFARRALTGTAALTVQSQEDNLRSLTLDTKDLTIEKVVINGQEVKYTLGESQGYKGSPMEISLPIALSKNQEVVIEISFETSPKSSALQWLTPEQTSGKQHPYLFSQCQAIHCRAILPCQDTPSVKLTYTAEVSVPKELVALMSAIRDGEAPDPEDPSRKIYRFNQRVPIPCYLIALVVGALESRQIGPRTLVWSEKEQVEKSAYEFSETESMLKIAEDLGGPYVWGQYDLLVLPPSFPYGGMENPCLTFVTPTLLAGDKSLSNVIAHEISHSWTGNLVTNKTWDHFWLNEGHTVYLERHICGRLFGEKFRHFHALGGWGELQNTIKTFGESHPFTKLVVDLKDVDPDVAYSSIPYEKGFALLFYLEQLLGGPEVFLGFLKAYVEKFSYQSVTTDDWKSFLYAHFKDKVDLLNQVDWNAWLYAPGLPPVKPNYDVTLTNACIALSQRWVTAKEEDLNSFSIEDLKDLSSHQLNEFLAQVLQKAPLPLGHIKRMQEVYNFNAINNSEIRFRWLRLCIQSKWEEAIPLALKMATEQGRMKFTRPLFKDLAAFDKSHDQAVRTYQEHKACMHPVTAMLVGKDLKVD

[3] = tested on: colitis; details: eight weeks of treatment, cotton top tamarins; cited from earlier work

Structure (SMILES): CN(CCCOc1ccc(Cc2ccccc2)cc1)CCC(=O)O.Cl [SC57461]
- inhibition of ionophore-induced LTB4 production [1]: caused inhibition
- inhibition of ionophore-induced LTB4 production [2]: caused inhibition
- colitis symptoms [3]: significantly improved colitis symptoms
